# pKi: −log10 of the molar value.
# Columns and labels:
# [1] = exposure of the anhydrous form to pure water (XRPD of solids); assay type: physicochemical
# Description: To an Eppendorf tube was added 1 mL USP water and 20 mg 3-(5-methylisoxazol-3-yl)-6-(1-methyl-1,2, 3-triazol-4-yl)methyloxy-1,2, 4-triazolo[3,4-a]phthalazine. The resulting suspension was vortexed for 10 seconds, then light protected with aluminium foil and placed on a rotary mixer for 72 hours. The solids were then vacuum filtered off and rinsed with 2xl mL water. Solids were partially wet when first analyzed by XRPD, afterward they were dried by house vacuum for 48 hours before more XRPD analysis.
# The XRPD data have been described earlier with the exception of the incompletely converted material from the synthesis in water. […] Conversion may take place more rapidly if solubility is increased by the addition of di-sodium pamoate or by other means. The di-hydrate may also be prepared using a 10% solution of MeCN in water.
# [2] = time dependent solubility in 2.5% aqueous di-sodium pamoate solution by HPLC; assay type: physicochemical
# Description: To a stirred, light protected glass vial was added 23.0 mL 2.5% aqueous di-sodium pamoate solution and 42 mg 3-(5-methylisoxazol-3-yl)-6-(1-methyl-1,2,3-triazol-4-yl)methyloxy-1,2,4-triazolo[3,4-a]phthalazine. Aliquots were removed by 3 mL syringe at various time intervals, passed through 0.22 μm Millex-GV low protein binding syringe filters, and diluted to appropriate concentrations with 50/50 MeCN/H2O for HPLC analysis.
# [3] = system: receptor; assay: receptor occupancy at the minimum effective dose; assay type: in vivo, rat; settings: at the minimum effective dose of 0.3 mg/kg
# [4] = system: rat; assay: rat water maze test (cognition enhancement); assay type: in vivo
# [5] = molecular target: T1, human GABAA receptors containing the α5 subunit stably expressed in Ltk cells (Homo sapiens, UniProt P18507+P31644); assay: displacement of [3H]-flumazenil ([3H]Ro 15-1788) from the benzodiazepine binding site; settings: read-out: Ki value for displacement of [3H]Ro 15-1788 from the α5 subunit of the human GABAA receptor
# T1 construct: expressed in transfected cells; host or cells: Ltk cells (mouse fibroblasts), stably expressing
# T1 sequence (P31644 32-462): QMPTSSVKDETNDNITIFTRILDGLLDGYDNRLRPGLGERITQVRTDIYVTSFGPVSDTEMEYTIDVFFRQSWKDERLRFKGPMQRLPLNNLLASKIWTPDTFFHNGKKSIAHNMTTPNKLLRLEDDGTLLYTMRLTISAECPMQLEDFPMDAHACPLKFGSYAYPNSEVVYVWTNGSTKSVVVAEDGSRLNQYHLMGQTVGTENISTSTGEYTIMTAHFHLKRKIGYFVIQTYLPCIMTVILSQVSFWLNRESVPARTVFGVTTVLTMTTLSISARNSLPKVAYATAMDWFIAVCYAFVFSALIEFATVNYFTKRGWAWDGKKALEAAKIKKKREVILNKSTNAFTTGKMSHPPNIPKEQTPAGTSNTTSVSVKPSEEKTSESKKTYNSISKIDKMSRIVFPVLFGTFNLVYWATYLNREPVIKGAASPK
# T1 sequence (P18507 40-467 limits assumed): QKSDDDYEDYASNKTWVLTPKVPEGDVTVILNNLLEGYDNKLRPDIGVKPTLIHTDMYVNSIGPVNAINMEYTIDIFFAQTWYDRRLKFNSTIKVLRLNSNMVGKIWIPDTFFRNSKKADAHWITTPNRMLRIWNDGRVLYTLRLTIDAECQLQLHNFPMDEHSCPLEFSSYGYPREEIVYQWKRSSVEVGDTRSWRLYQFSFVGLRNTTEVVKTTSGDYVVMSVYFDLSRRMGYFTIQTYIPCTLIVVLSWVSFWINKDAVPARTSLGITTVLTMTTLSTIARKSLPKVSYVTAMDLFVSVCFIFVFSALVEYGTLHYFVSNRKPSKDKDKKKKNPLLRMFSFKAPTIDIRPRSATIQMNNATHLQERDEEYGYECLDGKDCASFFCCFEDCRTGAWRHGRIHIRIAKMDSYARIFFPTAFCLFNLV
# T1 sequence (P28472 26-473 partner): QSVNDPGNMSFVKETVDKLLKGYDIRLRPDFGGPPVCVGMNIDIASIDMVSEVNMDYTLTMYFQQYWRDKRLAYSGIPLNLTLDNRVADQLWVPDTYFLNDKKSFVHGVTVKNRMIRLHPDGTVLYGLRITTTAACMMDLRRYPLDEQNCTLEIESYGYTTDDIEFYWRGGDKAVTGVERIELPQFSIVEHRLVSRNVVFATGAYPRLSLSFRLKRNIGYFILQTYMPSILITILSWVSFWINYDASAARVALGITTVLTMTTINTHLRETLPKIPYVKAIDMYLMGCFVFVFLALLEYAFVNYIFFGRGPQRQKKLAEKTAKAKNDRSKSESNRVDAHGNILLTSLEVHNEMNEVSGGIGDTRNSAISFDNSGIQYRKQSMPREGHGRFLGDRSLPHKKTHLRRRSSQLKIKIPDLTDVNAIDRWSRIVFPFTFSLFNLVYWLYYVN
solubility in pure water [1],"solubility at 5 minutes ([2]; 2.5% aqueous di-sodium pamoate solution, aqueous with cosolvent or surfactant or cyclodextrin, thermodynamic from solid, 5 minutes (0.08 h), read-out: Concentration (solubility by HPLC)) [µg/mL]","solubility at 90 minutes ([2]; 2.5% aqueous di-sodium pamoate solution, aqueous with cosolvent or surfactant or cyclodextrin, thermodynamic from solid, 90 minutes (1.50 h), read-out: Concentration (solubility by HPLC)) [µg/mL]","solubility at 930 minutes ([2]; 2.5% aqueous di-sodium pamoate solution, aqueous with cosolvent or surfactant or cyclodextrin, thermodynamic from solid, 930 minutes (15.5 h), read-out: Concentration (solubility by HPLC)) [µg/mL]","solubility at 1500 minutes ([2]; 2.5% aqueous di-sodium pamoate solution, aqueous with cosolvent or surfactant or cyclodextrin, thermodynamic from solid, 1500 minutes (25.0 h), read-out: Concentration (solubility by HPLC)) [µg/mL]","solubility at 2910 minutes ([2]; 2.5% aqueous di-sodium pamoate solution, aqueous with cosolvent or surfactant or cyclodextrin, thermodynamic from solid, 2910 minutes (48.5 h), read-out: Concentration (solubility by HPLC)) [µg/mL]",% of 5 Minute Value ([2]; 5 minutes (0.08 h)) [%],% of 5 Minute Value ([2]; 90 minutes (1.50 h)) [%],% of 5 Minute Value ([2]; 930 minutes (15.5 h)) [%],% of 5 Minute Value ([2]; 1500 minutes (25.0 h)) [%],% of 5 Minute Value ([2]; 2910 minutes (48.5 h)) [%],"decrease in solubility over time, % of the original solubility after 5 minutes ([2]; summary of Table 1) [%]",pKi [5],melting point [°C],SMILES,receptor occupancy [3] [%],minimum effective dose [4] [mg/kg],enhancement of cognition ([4]; demonstrated at 0.3 mg/kg and 3 mg/kg)
extreme insolubility,1890,1920,1410,1290,1240,100.0,101.4,74.5,68.0,65.4,~65,≥ 7.00,–,"Cc1cc(-c2nnc3c4ccccc4c(OCc4cn(C)nn4)nn23)no1 [L-822, 179, 3-(5-methylisoxazol-3-yl)-6-(1-methyl-1,2,3-triazol-4-yl)methyloxy-1,2,4-triazolo[3,4-a]phthalazine]",40,0.3,enhance cognition
–,–,–,–,–,–,–,–,–,–,–,–,–,247.5 to 249,"Cc1cc(-c2nnc3c4ccccc4c(OCc4cccc(Br)n4)nn23)no1 [compound 2, 6-(6-Bromopyridin-2-yl)methyloxy-3-(5-methylisoxazol-3-yl)-1,2,4-triazolo[3,4-a]phthalazine]",–,–,–

# Source: patent US6534505B2, “Therapeutic polymorphs of a GABA-A alpha-5 inverse agonist and pamoate formulations of the same” (Merck & Co., Inc., priority 1998, dated 2003)
